Experimental data as given in patent US11096985B2, “Antimicrobial peptides, their variants and uses” (priority 2015, dated 2021).
Where a SMILES comes first, the peptide text is derived from it. [ ]: non-standard residue; d: D form.

What was measured:
human erythrocytes = format: cell-based
Method: In hemolysis assays, the ability of peptides at 128 μg/ml concentration to lyse human erythrocytes to release hemoglobin was measured. The peptides described here preferably have low hemolytic activity (0.2 to 3.8% hemolysis) in mammal body. […] These peptides are useful as antimicrobial drugs as they show little or no side effects at concentrations needed to kill bacteria.
Minimum inhibition concentrations (MICs) were tested by microbroth dilution method and Chain 104, 105 and 109 inhibited the growth of Escherichia coli (ATCC 25922), Staphylococcus aureus (ATCC 25923), Klebsiella pneumoniae (ATCC 10031) and Pseudomonas aeruginosa (ATCC 27853) between 1-8 μg/ml respectively (Tables 3a, 3b and 3c). The membranolytic activities of the peptides were tested by measuring the release of hemoglobin from erythrocytes of fresh blood donated by voluntiers. Hemoglobin levels were determined spectrometrically by taking OD at 540 nm by following the protocol of Schmidtchen et al., 2011.

[1] = pH 4-9, RDA
Method: (§3) Thermal stability was evaluated by diluting peptides to the concentration of 2 mg/ml in PBS buffer (pH 7.4) and incubating at different temperatures, such as +4° C., 25° C. (RT), 37° C. and 45° C., peptides stored at −20° C. were used as control. […] Peptides were also tested by diluting them at different pH values starting from pH 4 to 9. The effect of NaCl on the antimicrobial activity was tested by adding different concentrations (50, 100 and 200 mM) of NaCl to MH medium and the minimum inhibitory concentrations were tested against 4 ATCC bacterial strains.

[2] = +4, 25, 37 and 45° C., 14 days, PBS pH 7.4, RDA with 20 μg
Method: as §3

[3] = test system: gram positive and negative bacteria; experiment: MIC by micro broth dilution, summary over the strains tested; format: cell-based
Method: (§1) Minimum inhibition concentrations (MICs) were determined against Escherichia coli (ATCC 25922), Staphylococcus aureus (ATCC 25923), Klebsiella pneumoniae (ATCC 10031) and Pseudomonas aeruginosa (ATCC 27853). Also clinical strains of E. coli, K. pneumoniae, E. cloacae, P. aeruginosa, Serratia marcescens, Proteus mirabilis, S. pneumoniae, Acinetobacter baumannii, A. johnsonii and S. aureus were used for MICs assays. Additionally, clinical strains of yeast including Candida albicans, C. glabrata, C. parapsilosis and C. quillermondiae were used. The susceptibility of these microorganisms to Chain peptides were determined using micro broth dilution assay. Colonies of the respective microorganism from Muller Hinton (MH) agar plates incubated overnight were suspended in MH broth media and final concentration of microorganism was adjusted to 5.0×10^5 cfu/ml. An aliquot of 10 μl of each Chain peptide, or gentamicin, tetracycline as reference antibiotics were added in differing concentrations along with 90 μl of bacterial suspension to 96 well polypropylene plates and incubated at 37° C. for 20 to 24 hours. Concentrations of Chain peptides and reference antibiotics ranged from 0.125 to 128 μg/ml and the MICs were recorded as the lowest concentration with no visual growth of bacteria. Similarly, antifungal MICs were tested in Potato dextrose broth.

S. aureus RN4220 = format: cell-based, Staphylococcus aureus; conditions: antibiotic sensitive strain S. aureus RN4220
Method: as §1
(§2) Peptides Chain 104, Chain 105, Chain 201, Chain 308, Chain 310 were tested against antibiotic-sensitive strains of S. aureus RN4220 and methicillin resistant strains of S. aureus COL (MRSA). Chain peptides comprising of either L- or D-form amino acids were tested against these bacteria, and the D-form peptides were found have better activity compared to L-form (Table 6). Synergistic activity of chain peptides along with Ertapenem (4 μg/ml) was tested to know whether it will influence the activity against MRSA strains. […] Chain 310 has the best antibacterial activity against the MRSA strains with a MIC of 0.06 & 0.03 μg/ml along with Ertapenem (4 μg/ml) for both forms of L and D-peptides (Table 6).

S. aureus COL (MRSA) = experiment: Synergistic activity with Ertapenem (4 μg/ml) against MRSA, MIC; format: cell-based, Staphylococcus aureus; conditions: S. aureus COL, together with 4 μg/ml Ertapenem (synergistic activity)
Method: as §1, §2

CC[C@H](C)[C@H](NC(=O)[C@H](CC(C)C)NC(=O)[C@H](CCCNC(=N)N)NC(=O)[C@@H](N)CCCNC(=N)N)C(=O)N[C@@H](Cc1c[nH]c2ccccc12)C(=O)N[C@@H](CCCNC(=N)N)C(=O)N[C@@H](CCCNC(=N)N)C(=O)N[C@@H](Cc1ccccc1)C(=O)N[C@@H](CCCCN)C(=O)N[C@@H](Cc1c[nH]c2ccccc12)C(=O)N[C@@H](CC(C)C)C(=O)N[C@@H](CCCNC(=N)N)C(=O)O [Chain204] (H-RRLIWRRFKWLR-OH)
side effects to humans as tested by hemolysis assay (human erythrocytes): little side effects | pH stability (zone of inhibition) [1]: not hindered by pH | thermostability (antibacterial activity kept after incubation) [2]: not hindered by pH or temperature even upto 45 °C for over 14 days

CC(C)C[C@H](NC(=O)[C@H](Cc1c[nH]c2ccccc12)NC(=O)[C@H](Cc1ccccc1)NC(=O)[C@H](Cc1c[nH]c2ccccc12)NC(=O)[C@H](CCCCN)NC(=O)[C@H](CC(C)C)NC(=O)[C@@H](N)CCCCN)C(=O)N[C@@H](Cc1ccccc1)C(=O)N[C@@H](CCCCN)C(=O)N[C@@H](CCCCN)C(=O)N[C@@H](CCCNC(=N)N)C(=O)O [Chain311] (H-KLKWFWLFKKR-OH; N-terminus and C-terminus assumed)
activity against the four ATCC strains [3]: very active

CC(C)C[C@H](NC(=O)[C@H](CCCCN)NC(=O)[C@H](Cc1c[nH]c2ccccc12)NC(=O)[C@H](CCCCN)NC(=O)[C@H](C)NC(=O)[C@H](Cc1c[nH]cn1)NC(=O)[C@H](CC(C)C)NC(=O)[C@H](CCCNC(=N)N)NC(=O)[C@H](Cc1c[nH]c2ccccc12)NC(=O)[C@@H](N)Cc1c[nH]c2ccccc12)C(=O)N[C@@H](Cc1c[nH]c2ccccc12)C(=O)O [Chain109] (H-WWRLHAKWKLW-OH)
side effects to humans as tested by hemolysis assay (human erythrocytes): little side effects

CC[C@H](C)[C@H](NC(=O)[C@H](CCSC)NC(=O)[C@H](C)NC(=O)[C@H](CCCNC(=N)N)NC(=O)[C@H](Cc1c[nH]c2ccccc12)NC(=O)[C@H](CCCCN)NC(=O)[C@@H](N)CCCNC(=N)N)C(=O)N[C@@H](CCCNC(=N)N)C(=O)N[C@@H](CC(C)C)C(=O)N[C@@H](Cc1c[nH]cn1)C(=O)N[C@@H](C)C(=O)N[C@@H](CCCCN)C(=O)N[C@@H](CCCNC(=N)N)C(=O)N[C@@H](CC(C)C)C(=O)N[C@@H](CCCNC(=N)N)C(=O)N[C@@H](CCCCN)C(=O)O [Chain104] (H-RKWRAMIRLHAKRLRK-OH)
side effects to humans as tested by hemolysis assay (human erythrocytes): little side effects | pH stability (zone of inhibition) [1]: not hindered by pH | thermostability (antibacterial activity kept after incubation) [2]: not hindered by pH or temperature even upto 45 °C for over 14 days

CC[C@H](C)[C@H](NC(=O)[C@H](Cc1c[nH]c2ccccc12)NC(=O)[C@@H](N)CCCCN)C(=O)N[C@H](C(=O)N[C@@H](Cc1c[nH]c2ccccc12)C(=O)N[C@@H](CCCNC(=N)N)C(=O)N[C@@H](Cc1c[nH]c2ccccc12)C(=O)N[C@@H](CCCNC(=N)N)C(=O)N[C@@H](Cc1ccccc1)C(=O)N[C@@H](CCCCN)C(=O)N[C@@H](CCCNC(=N)N)C(=O)O)C(C)C [Compound 201] (H-KWIVWRWRFKR-OH)
Minimum inhibitory concentration (MIC), S. aureus RN4220 (S. aureus RN4220): 64 µg/mL | Minimum inhibitory concentration (MIC), S. aureus COL + 4 μg/ml Ertapenem (S. aureus COL (MRSA)): 0.5 µg/mL

CC(C)C[C@H](NC(=O)[C@H](CCCCN)NC(=O)[C@H](CCCCN)NC(=O)[C@H](Cc1ccccc1)NC(=O)[C@H](CC(C)C)NC(=O)[C@H](Cc1c[nH]c2ccccc12)NC(=O)[C@H](CCCNC(=N)N)NC(=O)[C@H](Cc1c[nH]c2ccccc12)NC(=O)[C@H](CCCCN)NC(=O)[C@H](CCCNC(=N)N)NC(=O)[C@@H](N)CCCCN)C(=O)O [Compound 310] (H-KRKWRWLFKKL-OH)
Minimum inhibitory concentration (MIC), S. aureus RN4220 (S. aureus RN4220): >64 µg/mL | Minimum inhibitory concentration (MIC), S. aureus COL + 4 μg/ml Ertapenem (S. aureus COL (MRSA)): 0.06 µg/mL

CC[C@H](C)[C@H](NC(=O)[C@H](Cc1c[nH]c2ccccc12)NC(=O)[C@@H](N)CCCCN)C(=O)N[C@H](C(=O)N[C@@H](Cc1c[nH]c2ccccc12)C(=O)N[C@@H](CCCNC(=N)N)C(=O)N[C@@H](Cc1c[nH]c2ccccc12)C(=O)N[C@@H](CCCNC(=N)N)C(=O)N[C@@H](Cc1ccccc1)C(=O)N[C@@H](CCCCN)C(=O)N[C@@H](CCCNC(=N)N)C(=O)O)C(C)C [Chain201] (H-KWIVWRWRFKR-OH)
side effects to humans as tested by hemolysis assay (human erythrocytes): little side effects | pH stability (zone of inhibition) [1]: not hindered by pH | thermostability (antibacterial activity kept after incubation) [2]: not hindered by pH or temperature even upto 45 °C for over 14 days

CC[C@H](C)[C@H](NC(=O)[C@H](CCSC)NC(=O)[C@H](C)NC(=O)[C@H](CCCNC(=N)N)NC(=O)[C@H](Cc1c[nH]c2ccccc12)NC(=O)[C@H](CCCCN)NC(=O)[C@@H](N)CCCNC(=N)N)C(=O)N[C@@H](CCCNC(=N)N)C(=O)N[C@@H](CC(C)C)C(=O)N[C@@H](Cc1c[nH]cn1)C(=O)N[C@@H](C)C(=O)N[C@@H](CCCCN)C(=O)N[C@@H](Cc1c[nH]c2ccccc12)C(=O)N[C@@H](CC(C)C)C(=O)N[C@@H](CCCNC(=N)N)C(=O)N[C@@H](CCCCN)C(=O)O [Chain105] (H-RKWRAMIRLHAKWLRK-OH)
side effects to humans as tested by hemolysis assay (human erythrocytes): little side effects | pH stability (zone of inhibition) [1]: not hindered by pH | thermostability (antibacterial activity kept after incubation) [2]: not hindered by pH or temperature even upto 45 °C for over 14 days

CC[C@H](C)[C@H](N)C(=O)N[C@@H](Cc1c[nH]c2ccccc12)C(=O)N[C@@H](CCCCN)C(=O)N[C@@H](CCCNC(=N)N)C(=O)N[C@@H](Cc1ccccc1)C(=O)N[C@@H](CCCNC(=N)N)C(=O)N[C@@H](CC(C)C)C(=O)N[C@@H](Cc1ccccc1)C(=O)N[C@@H](CCCCN)C(=O)N[C@@H](CCCCN)C(=O)N[C@@H](Cc1c[nH]c2ccccc12)C(=O)O [Chain304] (H-IWKRFRLFKKW-OH; N-terminus and C-terminus assumed)
activity against the four ATCC strains [3]: very active

CC(C)C[C@@H](NC(=O)[C@H](N)CCCNC(=N)N)C(=O)N[C@H](CCCCN)C(=O)N[C@H](Cc1c[nH]c2ccccc12)C(=O)N[C@H](Cc1ccccc1)C(=O)N[C@H](CC(C)C)C(=O)N[C@H](CC(C)C)C(=O)N[C@H](Cc1ccccc1)C(=O)N[C@H](CCCNC(=N)N)C(=O)N[C@H](CCCCN)C(=O)N[C@H](CCCNC(=N)N)C(=O)O [308 D] (H-[dR][dL][dK][dW][dF][dL][dL][dF][dR][dK][dR]-OH)
Minimum inhibitory concentration (MIC), S. aureus RN4220 (S. aureus RN4220): 4 µg/mL | Minimum inhibitory concentration (MIC), S. aureus COL + 4 μg/ml Ertapenem (S. aureus COL (MRSA)): 1 µg/mL

CC(C)C[C@H](NC(=O)[C@H](Cc1c[nH]c2ccccc12)NC(=O)[C@H](Cc1ccccc1)NC(=O)[C@H](Cc1c[nH]c2ccccc12)NC(=O)[C@H](CCCCN)NC(=O)[C@H](CCCNC(=N)N)NC(=O)[C@@H](N)Cc1c[nH]c2ccccc12)C(=O)N[C@@H](Cc1ccccc1)C(=O)N[C@@H](CCCCN)C(=O)N[C@@H](CCCCN)C(=O)N[C@@H](CCCNC(=N)N)C(=O)O [Chain309] (H-WRKWFWLFKKR-OH; N-terminus and C-terminus assumed)
activity against the four ATCC strains [3]: very active
